{
  "source": "paper PMC11999280",
  "about": "“Design and screening of novel endosomal escape compounds that enhance functional delivery of oligonucleotides in vitro” (Molecular Therapy. Nucleic Acids, 2025)",
  "format_in_all_cases": "cell-based",
  "key": {"[1]": {"test_system": "cell lines carrying an mCherry-GAL9-reporter", "assay": "GAL9 puncta formation upon EEE dose escalation (images)", "conditions": "dose escalation 0.31 to 10 μM", "procedure": "We further studied endosomal leakage by quantifying GAL9 recruitment upon EEE dose escalation, from 0.31 to 10 μM. For this purpose, we used cell lines carrying an mCherry-GAL9-reporter, where endosomal rupture could be quantified by measuring GAL9 clustering as a puncta event representative of endosomal remodeling.\nExperiments assessing GAL9 localization as an indicator for endosomal remodeling were performed as previously described[15] using 8× stablemCherry-GAL9 expressing cell lines, SHSY5Y, U2OS, 16HBE, NCI-H358, HuH7, HepG2, HEK293, and HeLa. For mCherry-GAL9 recruitment, 3,000 or 6,500 cells/well (depending upon cell line) were seeded into 384-well CellCarrier Ultra plates 24 h prior to treatment (PerkinElmer, catalog no. 6007558). An Echo 655T acoustic dispenser (Labcyte) was used for EEE dose-response preparation by transferring to the cell plate. At assay endpoints, cells were PBS washed, 4% paraformaldehyde fixed at room temperature […] (VWR, catalog no. 9713.1000), and nuclei stained with PBS +1 μg/mL Hoechst 33342 (Thermo Fisher Scientific, catalog no. H21492).\nImaging was performed using a spinning-disk confocal microscope (Yokogawa: CV8000) with a ×20w objective (numerical aperture 1.0). Cells and mCherry-GAL9 structure identification and quantification were done using Columbus image-analysis software (PerkinElmer version 2.9.0). […]"}, "[2]": {"test_system": "mCherry-GAL9 expressing HepG2 cells", "assay": "GAL9 recruitment assay, HepG2", "conditions": "calculated mean from >3 independent exp.", "how_it_was_run": "(§1)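 Endosomal remodeling was inferred from recruitment of stably expressed mCherry-GAL9 into intracellular structures, quantified by confocal image analysis after compound dose-response treatment, fixation and Hoechst nuclear staining.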"}, "[3]": {"test_system": "HeLa_Luc705 cells (pLuc/705 splice-switching reporter)", "assay": "Functional 705-SSO delivery, luciferase splice-switching assay", "conditions": "for Luciferase expression compared to reference: mean from >3 independent experiments", "how_it_was_run": "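Splice correction was measured as firefly luciferase luminescence in Triton X-100 lysates taken 24 h after enhancer treatment. Before treatment, the 10,000 cells/well had spent 24 h with 1–2 μM 705-SSO (2′-OMe, phosphorothioate). For comparison, 100–200 nM SSO was lipofected with LF2000.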"}, "[4]": {"test_system": "mCherry-GAL9 expressing SHSY5Y cells", "assay": "GAL9 recruitment assay, SHSY5Y", "conditions": "calculated mean from >3 independent exp.", "how_it_was_run": "as §1"}, "HeLa_Luc705 cells": {"test_system": "HeLa_Luc705 cells", "assay": "Extracellular LDH release cell toxicity assay", "conditions": "24-h treatment", "procedure": "Further studies evaluating acute toxicity upon EEE4 treatment were performed by measuring extracellular lactate dehydrogenase (LDH) release as indicator of possible plasma membrane damage.\nFor measuring cell membrane damage, extracellular LDH was quantified in conditioned media collected 1 or 24 h after initiation of treatment. LDH quantification was performed following the manufacturer’s instructions (Thermo Fisher Scientific, catalog no. C20300), 0.1% Triton X-100 cell lysed was used as the positive control, and values were normalized to untreated control."}, "[5]": {"test_system": "mCherry-GAL9 expressing HuH7 cells", "assay": "GAL9 recruitment assay, HuH7", "conditions": "calculated mean from >3 independent exp.", "how_it_was_run": "as §1"}, "[6]": {"test_system": "mCherry-GAL9 expressing U2OS cells", "assay": "GAL9 recruitment assay, U2OS", "conditions": "calculated mean from >3 independent exp.", "how_it_was_run": "as §1"}},
  "data": [
    {"smiles": "COc1nn(C2CCNCC2)cc1Nc1ncc(F)c(-n2ccc3c(C#N)cccc32)n1", "note": "[EEE4]", "values": [
      {"measurement": "EEE concentration with clear GAL9 puncta formation", "setting": "[1]", "result": "≥ 1.25", "unit": "µM"},
      {"measurement": "Gal9 response compared to reference", "setting": "[2]; EEE 0.31 µM", "result": 0.010},
      {"measurement": "Gal9 response compared to reference", "setting": "[2]; EEE 0.62 µM", "result": 0.014},
      {"measurement": "Gal9 response compared to reference", "setting": "[2]; EEE 1.25 µM", "result": 0.030},
      {"measurement": "Gal9 response compared to reference", "setting": "[2]; EEE 2.5 µM", "result": 0.410},
      {"measurement": "Gal9 response compared to reference", "setting": "[2]; EEE 5 µM", "result": 0.444},
      {"measurement": "Gal9 response compared to reference", "setting": "[2]; EEE 10 µM", "result": 0.480},
      {"measurement": "SSO-mediated splice-switching upon co-treatment with bafilomycin A1", "setting": "[3]; EEE4 + bafilomycin (0.5 μM) co-incubation", "result": "significantly reduced"},
      {"measurement": "Luciferase expression compared to reference", "setting": "[3]; HeLa-Luc705 + 1 µM SSO, EEE 0.5 µM", "result": 3.610},
      {"measurement": "Luciferase expression compared to reference", "setting": "[3]; HeLa-Luc705 + 1 µM SSO, EEE 2 µM", "result": 139.083},
      {"measurement": "Luciferase expression compared to reference", "setting": "[3]; HeLa-Luc705 + 1 µM SSO, EEE 4 µM", "result": 39.821},
      {"measurement": "Luciferase expression compared to reference", "setting": "[3]; HeLa-Luc705 + 1 µM SSO, EEE 5 µM", "result": 13.700},
      {"measurement": "Luciferase expression compared to reference", "setting": "[3]; HeLa-Luc705 + 2 µM SSO, EEE 5 µM", "result": 0.020},
      {"measurement": "Splice-switching with 24-h SSO pre-incubation relative to SSO co-treatment", "setting": "[3]; dose response, luciferase readout at time points after EEE addition", "result": 20, "unit": "times"},
      {"measurement": "Splice-switching enhancement", "setting": "[3]; using 2–2.5 μM EEE", "result": "above 100 fold"},
      {"measurement": "Gal9 response compared to reference", "setting": "[4]; EEE 0.31 µM", "result": 0.016},
      {"measurement": "Gal9 response compared to reference", "setting": "[4]; EEE 0.62 µM", "result": 0.315},
      {"measurement": "Gal9 response compared to reference", "setting": "[4]; EEE 1.25 µM", "result": 0.678},
      {"measurement": "Gal9 response compared to reference", "setting": "[4]; EEE 2.5 µM", "result": 0.499},
      {"measurement": "Gal9 response compared to reference", "setting": "[4]; EEE 5 µM", "result": 0.389},
      {"measurement": "Gal9 response compared to reference", "setting": "[4]; EEE 10 µM", "result": 0.026},
      {"measurement": "EEE concentration with slight increase in LDH release", "setting": "HeLa_Luc705 cells", "result": "≥ 3", "unit": "µM"},
      {"measurement": "Gal9 response compared to reference", "setting": "[5]; EEE 0.31 µM", "result": 0.012},
      {"measurement": "Gal9 response compared to reference", "setting": "[5]; EEE 0.62 µM", "result": 0.033},
      {"measurement": "Gal9 response compared to reference", "setting": "[5]; EEE 1.25 µM", "result": 0.199},
      {"measurement": "Gal9 response compared to reference", "setting": "[5]; EEE 2.5 µM", "result": 0.245},
      {"measurement": "Gal9 response compared to reference", "setting": "[5]; EEE 5 µM", "result": 0.189},
      {"measurement": "Gal9 response compared to reference", "setting": "[5]; EEE 10 µM", "result": 0.045},
      {"measurement": "Gal9 response compared to reference", "setting": "[6]; EEE 0.31 µM", "result": 0.014},
      {"measurement": "Gal9 response compared to reference", "setting": "[6]; EEE 0.62 µM", "result": 0.019},
      {"measurement": "Gal9 response compared to reference", "setting": "[6]; EEE 1.25 µM", "result": 0.083},
      {"measurement": "Gal9 response compared to reference", "setting": "[6]; EEE 2.5 µM", "result": 0.332},
      {"measurement": "Gal9 response compared to reference", "setting": "[6]; EEE 5 µM", "result": 0.572},
      {"measurement": "Gal9 response compared to reference", "setting": "[6]; EEE 10 µM", "result": 0.561}
    ]}
  ]
}
